These results are taken from patent publication US8273724B2, “Melanoma antigens and their use in diagnostic and therapeutic methods” (The United States of America, as represented by the …, priority 1994, dated 2012).

Where a SMILES comes first, the peptide text is derived from it.

Test [1] concerns T2 cell lines preincubated with peptide. Put plainly: Recognition of modified peptides by natural epitope (M9-2, G9-154, G9-209, G9-280) reactive T-cells, 51Cr release on peptide-pulsed T2 cells (Example 5). The test is classed as cell-based, human. The protocol:
Assessment of antigen recognition by CTL. ^51Cr release cytotoxic assays were performed to detect the recognition of peptide and melanoma cells by CTL. To analyze peptide recognition, T2 cell lines were preincubated for 2 h at 37° C. with 1 ug/ml peptide, washed and used as target cells in a ^51Cr release cytotoxic assay. The melanoma lines 624mel was established in our laboratory (See Example 1).
In order to make more immunogenic peptides for induction of anti-melanoma T-cells than natural melanoma epitopes, a variety of peptides in which at least 1 amino acid was changed based on consensus motifs in peptides binding to a specific MHC Class I allele Falk, et al. (1991) Nature 351:290; Kubo et al. (1994) J. Immunol 152:3913; Parker, K. et al. (1992) Journal of Immunology 149:3580; Ruppert, J. et al. (1993) Cell 74:929-937) (Tables 14, 15, 16, and 17). […] By changing amino acid at the 1st, 2nd, 3rd or 9th positions which are important for HLA-A2 binding to the peptide, but less important for recognition by T-cell receptors, artificial peptides which can bind to HLA-A2.1 with higher affinity and still be recognized by natural epitope specific T-cells may be generated.

The target in another test is HLA-A2.1 (Homo sapiens, UniProt P04439, D140Y/D185E/D98H/E176V/E277Q/G131W/G231S/I119V/I121R/I166T/I218V/L300P/L318F/N151K/N90K/P208A/P217A/Q86G/Q94H/R138H/R169H/T345S). Put plainly: HLA-A2.1 binding assay of modified peptides, inhibition of radiolabeled Hbc 18-27 (Example 5). To be noted: for IC50: modified gp100 G9-154 peptides, read-out: Binding affinity to HLA-A2.1.

A further test relates to HLA-A2.1+ T2 cell line. In words: 51Cr release cytotoxicity assay: TIL lysis of T2 cells preincubated with synthetic MART-1 peptides (Example 2). The class given is cell-based, human.

As to `CC(C)[C@H](NC(=O)[C@H](CO)NC(=O)[C@H](Cc1ccccc1)NC(=O)[C@@H]1CCCN1C(=O)[C@@H](NC(=O)[C@H](CCC(N)=O)NC(=O)[C@H](CC(=O)O)NC(=O)[C@@H](NC(=O)[C@@H](N)Cc1ccccc1)[C@@H](C)O)C(C)C)C(=O)O` [G9-209-1F], in test [1], the “Recognition by G9-209 reactive T-cell” value is given as “+ (+, recognized)” and the “recognition by the original melanoma reactive T-cells” value was “recognized”. At HLA-A2.1, the “binding affinity to HLA-A2.1 compared with the natural epitope” value is listed as “higher binding affinity”.
In the case of `CC[C@H](C)[C@H](N)C(=O)N[C@@H](CCSC)C(=O)N[C@@H](CC(=O)O)C(=O)N[C@@H](CCC(N)=O)C(=O)N[C@H](C(=O)N1CCC[C@H]1C(=O)N[C@@H](Cc1ccccc1)C(=O)N[C@@H](CO)C(=O)N[C@H](C(=O)O)C(C)C)C(C)C` [G9-209-2M], in test [1], the “Recognition by G9-209 reactive T-cell” value is “+ (+, recognized)” and the “recognition by the original melanoma reactive T-cells” value is reported as “recognized”. Besides, the “binding affinity to HLA-A2.1 compared with the natural epitope” value at HLA-A2.1 is “higher binding affinity”.
With `CC(C)[C@H](NC(=O)[C@H](CCC(N)=O)NC(=O)[C@H](Cc1c[nH]c2ccccc12)NC(=O)[C@H](Cc1ccc(O)cc1)NC(=O)[C@H](CCC(N)=O)NC(=O)CNC(=O)[C@H](Cc1ccc(O)cc1)NC(=O)[C@@H](NC(=O)[C@@H](N)CCCCN)[C@@H](C)O)C(=O)O` [G9-154-3Y] (H-KTYGQYWQV-OH; N-terminus and C-terminus assumed), the “Recognition by G9-154 reactive T-cell” value in test [1] is listed as “+ (+, recognized)”. Moreover, the IC50 on HLA-A2.1 stood at 30 nM.
`CC[C@H](C)[C@H](N)C(=O)N[C@@H](CC(C)C)C(=O)N[C@@H](CC(=O)O)C(=O)N[C@@H](CCC(N)=O)C(=O)N[C@H](C(=O)N1CCC[C@H]1C(=O)N[C@@H](Cc1ccccc1)C(=O)N[C@@H](CO)C(=O)N[C@H](C(=O)O)C(C)C)C(C)C` [G9-209-2L]: in test [1], the “Recognition by G9-209 reactive T-cell” value is listed as “+ (+, recognized)” and the “recognition by the original melanoma reactive T-cells” value is recorded as “recognized”. Further, the “binding affinity to HLA-A2.1 compared with the natural epitope” value on HLA-A2.1 is on record as “higher binding affinity”.
Consider `CC[C@H](C)[C@H](NC(=O)CN)C(=O)NCC(=O)N[C@H](C(=O)N[C@@H](CC(C)C)C(=O)N[C@H](C(=O)N[C@H](C(=O)N[C@H](C(=O)N[C@@H](CC(C)C)C(=O)O)[C@@H](C)CC)C(C)C)[C@@H](C)O)[C@@H](C)CC` [M9-3] (H-GIGILTVIL-OH), for which the “% specific lysis” value with HLA-A2.1+ T2 cell line (T2 + peptide 10 ug/ml, effector TIL 660, E:T 40:1, 4 h) came to 0%; with HLA-A2.1+ T2 cell line (T2 + peptide 10 ug/ml, effector TIL 1074, E:T 40:1, 4 h), 10%; with HLA-A2.1+ T2 cell line (T2 + peptide 10 ug/ml, effector TIL 1235, E:T 40:1, 4 h), 20%; in the test on HLA-A2.1+ T2 cell line (T2 + peptide 10 ug/ml, effector TIL clone A42, E:T 20:1, 4 h), 18%; with HLA-A2.1+ T2 cell line (purified peptide 1 ug/ml, TIL 501, E:T 40:1), 5%; in the test on HLA-A2.1+ T2 cell line (purified peptide 1 ug/ml, TIL 620, E:T 40:1), 25%. The “% specific lysis” value is 0% in the test with HLA-A2.1+ T2 cell line (purified peptide 1 ug/ml, TIL 660, E:T 40:1); 1% in the test on HLA-A2.1+ T2 cell line (purified peptide 1 ug/ml, TIL 1074, E:T 40:1); 19% in the test on HLA-A2.1+ T2 cell line (purified peptide 1 ug/ml, TIL 1088, E:T 40:1); 0% with HLA-A2.1+ T2 cell line (purified peptide 1 ug/ml, TIL 1128, E:T 40:1); 1% with HLA-A2.1+ T2 cell line (purified peptide 1 ug/ml, TIL 1143, E:T 40:1); −2% in the test on HLA-A2.1+ T2 cell line (purified peptide 1 ug/ml, TIL 1200, E:T 40:1). Also, the “% specific lysis” value is listed as 0% in the test with HLA-A2.1+ T2 cell line (purified peptide 1 ug/ml, TIL 1235, E:T 40:1); −2% with HLA-A2.1+ T2 cell line (purified peptide 1 ug/ml, TIL 1363, E:T 40:1); −4% with HLA-A2.1+ T2 cell line (purified peptide 1 ug/ml, clone A42, E:T 20:1). Moreover, the “recognition by either A42 or TIL1235” value in the test on HLA-A2.1+ T2 cell line (purified peptides, titration (FIG. 2)) is given as “not recognized”.
As for `CC[C@H](C)[C@H](NC(=O)CNC(=O)[C@H](CC(C)C)NC(=O)[C@H](C)N)C(=O)NCC(=O)N[C@H](C(=O)N[C@@H](CC(C)C)C(=O)N[C@H](C(=O)N[C@H](C(=O)O)C(C)C)[C@@H](C)O)[C@@H](C)CC` [M9-2-2L], in test [1], the “Recognition by M9-2 reactive T-cell” value is listed as “+ (+, recognized)” and the “recognition by the original melanoma reactive T-cells” value is given as “recognized”. The “binding affinity to HLA-A2.1 compared with the natural epitope” value on HLA-A2.1 is “higher binding affinity”.
`CC(C)C[C@H](NC(=O)[C@@H](N)Cc1ccc(O)cc1)C(=O)N[C@@H](Cc1c[nH]c2ccccc12)C(=O)NCC(=O)N[C@@H](CCC(N)=O)C(=O)N[C@@H](Cc1ccc(O)cc1)C(=O)N[C@@H](Cc1c[nH]c2ccccc12)C(=O)N[C@@H](CCC(N)=O)C(=O)N[C@H](C(=O)O)C(C)C` [G9-154-1Y2L] (H-YLWGQYWQV-OH; N-terminus and C-terminus assumed): the “Recognition by G9-154 reactive T-cell” value in test [1] was “−”. For the same compound, the IC50 at HLA-A2.1 is 1.7 nM.
On to `CC(C)[C@H](NC(=O)[C@H](CCC(N)=O)NC(=O)[C@H](Cc1c[nH]c2ccccc12)NC(=O)[C@H](Cc1ccc(O)cc1)NC(=O)[C@H](CCC(N)=O)NC(=O)CNC(=O)[C@H](Cc1c[nH]c2ccccc12)NC(=O)[C@@H](NC(=O)[C@@H](N)Cc1ccc(O)cc1)[C@@H](C)O)C(=O)O` [G9-154-1Y], for which the “Recognition by G9-154 reactive T-cell” value in test [1] is on record as “−”. Moreover, the IC50 on HLA-A2.1 is 2.5 nM.
As to `CC(C)[C@H](NC(=O)[C@H](CCC(N)=O)NC(=O)[C@H](Cc1c[nH]c2ccccc12)NC(=O)[C@H](Cc1ccc(O)cc1)NC(=O)[C@H](CCC(N)=O)NC(=O)CNC(=O)[C@H](Cc1ccccc1)NC(=O)[C@@H](NC(=O)[C@@H](N)CCCCN)[C@@H](C)O)C(=O)O` [G9-154-3F] (H-KTFGQYWQV-OH; N-terminus and C-terminus assumed), in test [1], the “Recognition by G9-154 reactive T-cell” value is recorded as “+ (+, recognized)”. Further, the IC50 at HLA-A2.1 turned out to be 21 nM.
On to `CC(C)C[C@H](NC(=O)[C@@H](N)Cc1c[nH]c2ccccc12)C(=O)N[C@@H](CC(=O)O)C(=O)N[C@@H](CCC(N)=O)C(=O)N[C@H](C(=O)N1CCC[C@H]1C(=O)N[C@@H](Cc1ccccc1)C(=O)N[C@@H](CO)C(=O)N[C@H](C(=O)O)C(C)C)C(C)C` [G9-209-1W2L], for which, in test [1], the “Recognition by G9-209 reactive T-cell” value was “+ (+, recognized)” and the “recognition by the original melanoma reactive T-cells” value is reported as “recognized”. For the same compound, the “binding affinity to HLA-A2.1 compared with the natural epitope” value on HLA-A2.1 is “higher binding affinity”.
On to `CSCC[C@H](NC(=O)[C@@H](N)CCCCN)C(=O)N[C@@H](Cc1c[nH]c2ccccc12)C(=O)NCC(=O)N[C@@H](CCC(N)=O)C(=O)N[C@@H](Cc1ccc(O)cc1)C(=O)N[C@@H](Cc1c[nH]c2ccccc12)C(=O)N[C@@H](CCC(N)=O)C(=O)N[C@H](C(=O)O)C(C)C` [G9-154-2M] (H-KMWGQYWQV-OH; N-terminus and C-terminus assumed), for which the “Recognition by G9-154 reactive T-cell” value in test [1] is “+ (+, recognized)”. The IC50 on HLA-A2.1 was found to be 6.5 nM.
For `CC(C)C[C@H](N)C(=O)N[C@H](C(=O)N[C@@H](Cc1c[nH]c2ccccc12)C(=O)NCC(=O)N[C@@H](CCC(N)=O)C(=O)N[C@@H](Cc1ccc(O)cc1)C(=O)N[C@@H](Cc1c[nH]c2ccccc12)C(=O)N[C@@H](CCC(N)=O)C(=O)N[C@H](C(=O)O)C(C)C)[C@@H](C)O` [G9-154-1L] (H-LTWGQYWQV-OH; N-terminus and C-terminus assumed), the “Recognition by G9-154 reactive T-cell” value in test [1] is “+ (+, recognized)”. Further, the IC50 on HLA-A2.1 is 3.4 nM.
As for `CC(C)[C@H](NC(=O)[C@H](CCC(N)=O)NC(=O)[C@H](Cc1c[nH]c2ccccc12)NC(=O)[C@H](Cc1ccc(O)cc1)NC(=O)[C@H](CCC(N)=O)NC(=O)CNC(=O)[C@H](Cc1c[nH]c2ccccc12)NC(=O)[C@@H](NC(=O)[C@H](C)N)[C@@H](C)O)C(=O)O` [G9-154-1A] (H-ATWGQYWQV-OH; N-terminus and C-terminus assumed), the “Recognition by G9-154 reactive T-cell” value in test [1] was “+ (+, recognized)”. In addition, the IC50 on HLA-A2.1 is 5.2 nM.
